From patent US4416826A, “Peresters and use thereof” (priority 1980, dated 1983)
Like-named read-outs stand apart in the source and are kept apart here.

Key:
Triplet energy = assay type: physicochemical
[1] = End group analysis of polystyrene by IR
Method: The polystyrene obtained from each of the above polymerizations is purified by repeated (four times) precipitation from benzene solution with methanol. Before each precipitation, the benzene solution is centrifuged to remove any insoluble material. The finely powdered polymer is filtered and dried under vacuum for two days. Known amounts of polymer are dissolved in benzene and the IR is taken (2000-1500 cm^-1) against benzene in 0.1-mm NaCl cells. The peaks at 1730 and 1670 cm^-1 for the carbonyl groups, caused by ester and benzophenones, respectively, are measured. […] The extinction coefficient of the carbonyl group at 1730 cm^-1 is compared with that of authenticated methyl benzoylbenzoate, which is used as a model to measure the concentration of the ester end groups in the polymer. From the concentration of the ester and the extinction resulting from the carbonyl group in the benzophenone, the absorption caused by the benzophenone that is present as the ester can be calculated. The value is subtracted from the absorption obtained at 1670 cm^- 1 for the polymer. From the resulting absorption, the concentration of benzophenone alone is estimated from the known extinction of benzophenone at that wavelength.

[2] = Exp. 1: benzene, [I] 10 × 10^-3 M, styrene 2 M
[3] = Exp. 2: benzene, [I] 10 × 10^-3 M, styrene 3.5 M
[4] = Exp. 3: benzene, [I] 10 × 10^-3 M, styrene 5.0 M
[5] = Exp. 4: benzene, [I] 10 × 10^-3 M, styrene 7.0 M
[6] = Exp. 5: chloroform, [I] 5.0 × 10^-3 M, styrene 5.51 M
[7] = Exp. 6: chloroform, [I] 5.0 × 10^-3 M, styrene 6.92 M

CC(C)(C)OOC(=O)c1ccc(C(=O)c2ccccc2)cc1 [Ia, t-Butyl-4-Benzoylperbenzoate]
triplet energy ET (Triplet energy): 67.7 kcal/mol | total number of benzophenones as end groups per chain, in words [1]: one benzophenone end group | end groups per chain, Benzophenone [1, 2]: 0.18 | end groups per chain, Benzophenone as ester [1, 2]: 0.52 | end groups per chain, Total [1, 2]: 0.70 | end groups per chain, Benzophenone [1, 3]: 0.13 | end groups per chain, Benzophenone as ester [1, 3]: 0.68 | end groups per chain, Total [1, 3]: 0.81 | end groups per chain, Benzophenone [1, 4]: 0.33 | end groups per chain, Benzophenone as ester [1, 4]: 0.73 | end groups per chain, Total [1, 4]: 1.06 | end groups per chain, Benzophenone [1, 5]: 0.18 | end groups per chain, Benzophenone as ester [1, 5]: 0.81 | end groups per chain, Total [1, 5]: 0.99 | end groups per chain, Benzophenone [1, 6]: 0.29 | end groups per chain, Benzophenone as ester [1, 6]: 0.62 | end groups per chain, Total [1, 6]: 0.91 | end groups per chain, Benzophenone [1, 7]: 0.34 | end groups per chain, Benzophenone as ester [1, 7]: 0.71 | end groups per chain, Total [1, 7]: 1.05 | total number of benzophenones as end groups per chain, in words ([1]; listed as Perester): almost unity
